Target: human orexin-2 receptor (Homo sapiens (Human), UniProt O43614)
Assay: FLIPR Ca2+ Flux Assay, orexin-2 receptor
Type: cell-based
Settings: CHO cells expressing the human orexin-2 receptor; agonist 70 pM Ala-6,12 orexin-A; read-out: hOX2R FLIPR IC50
Outline: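 CHO cells expressing rat OX1 or human OX2 receptor, Fluo-4AM loaded 60 min; compound preincubated 5 min before 70 pM Ala-6,12 human orexin-A in HBSS/20 mM HEPES/0.1% BSA/2.5 mM probenecid, pH 7.4. FLIPR peak fluorescence over 5 min versus agonist-only response gives IC50.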

Chain of human orexin-2 receptor (O43614 whole entry): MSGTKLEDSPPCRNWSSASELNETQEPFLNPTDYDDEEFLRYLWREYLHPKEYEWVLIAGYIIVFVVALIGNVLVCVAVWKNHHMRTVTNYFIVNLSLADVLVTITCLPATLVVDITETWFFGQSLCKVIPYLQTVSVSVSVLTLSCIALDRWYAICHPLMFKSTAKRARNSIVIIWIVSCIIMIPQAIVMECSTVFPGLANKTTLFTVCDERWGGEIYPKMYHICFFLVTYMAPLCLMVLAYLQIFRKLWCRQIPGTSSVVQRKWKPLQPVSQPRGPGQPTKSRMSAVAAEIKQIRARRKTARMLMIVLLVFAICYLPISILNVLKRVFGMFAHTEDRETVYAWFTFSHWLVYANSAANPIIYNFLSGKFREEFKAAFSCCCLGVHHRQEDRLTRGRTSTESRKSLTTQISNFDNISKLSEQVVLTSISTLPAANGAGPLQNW

Row | Structure (SMILES) | IC50 [nM]
1 | CN(CCN(CC1CC1)C(=O)c1ccccc1-n1nccn1)c1cc(C#N)ccn1 [Example G-7, N-(2-((4-cyanopyridin-2-yl)(methyl)amino)ethyl)-N-(cycloproplmethyl)-2-(2H-1,2,3-triazol-2-yl)benzamide] | 35.8
2 | CC(C)CN(CCN(C)c1cc(C#N)ccn1)C(=O)c1ccccc1-n1nccn1 [Example G-8, N-(2-((4-cyanopyridin-2-yl)(methyl)amino)ethyl)-N-isobutyl-2-(2H-1,2,3-triazol-2-yl)benzamide] | 12.2
3 | CC(C)N(CCN(C)c1cc(C#N)ccn1)C(=O)c1ccccc1-n1nccn1 [Example G-9, N-(2-((4-cyanopyridin-2-yl)(methyl)amino)ethyl)-N-isopropyl-2-(2H-1,2,3-triazol-2-yl)benzamide] | 76.5
4 | CCN(CCN(C)c1nccc(C(C)(C)O)n1)C(=O)c1ccccc1-n1nccn1 [Example H-1, N-ethyl-N-(2-((4-(2-hydroxypropan-2-yl)pyrimidin-2-yl)(methy)amino)ethyl)-2-(2H-1,2,3-triazol-2-yl)benzamide] | 11
5 | CCN(CCN(C)c1nccc(C(C)(C)O)n1)C(=O)c1cccnc1OC(C)C [Example H-14, N-ethyl-N-(2-((4-(2-hydroxypropan-2-yl)pyrimidin-2-yl)(methyl)amino)ethyl)-2-isopropoxynicotinamide] | 65.4
6 | CCOc1ncccc1C(=O)N(CC)CCN(C)c1nccc(C(C)(C)O)n1 [Example H-15, 2-ethoxy-N-ethyl-N-(2-((4-(2-hydroxypropan-2-yl)pyrimidin-2-yl)(methyl)amino)ethyl) nicotinamide] | 77.3
7 | CCN(CCN(C)c1nccc(C(C)(C)O)n1)C(=O)c1cccnc1OCC(F)F [Example H-16, 2-(2,2-difluoroethoxy)-N-ethyl-N-(2-((4-(2-hydroxypropan-2-yl)pyrimidin-2-yl)(methyl)amino)ethyl) nicotinamide] | 24.2
8 | CCN(CCN(C)c1nccc(C(C)(C)O)n1)C(=O)c1cccnc1OCC(F)(F)F [Example H-17] | 21.7
9 | CCN(CCN(C)c1nccc(C(C)(C)O)n1)C(=O)c1ccccc1OC(F)F [Example H-18, 2-(difluoromethoxy)-N-ethyl-N-(2-((4-(2-hydroxypropan-2-yl)pyrimidin-2-yl)(methyl)amino)ethyl) benzamide] | 49.3
10 | CCCc1ccccc1C(=O)N(CC)CCN(C)c1nccc(C(C)(C)O)n1 [Example H-19, N-ethyl-N-(2-((4-(2-hydroxypropan-2-yl)pyrimidin-2-yl)(methyl)amino)ethyl)-2-propylbenzamide] | 13.1
11 | CCN(CCN(C)c1nccc(C(C)(C)O)n1)C(=O)c1ccccc1OCC(F)(F)F [Example H-20, N-ethyl-N-(2-((4-(2-hydroxypropan-2-yl)pyrimidin-2-yl)(methyl)amino)ethyl)-2-(2,2,2-trifluoroethoxy)benzamide] | 32
12 | CCN(CCN(C)c1nccc(C(C)(C)O)n1)C(=O)c1ccccc1CC(F)(F)F [Example H-21, N-ethyl-N-(2-((4-(2-hydroxypropan-2-yl)pyrimidin-2-yl)(methyl)amino)ethyl)-2-(2,2,2-trifluoroethyl)benzamide] | 18
13 | CCN(CCN(C)c1nccc(C(C)(C)O)n1)C(=O)c1ccccc1OCC(F)F [Example H-22, 2-(2,2-difluoroethoxy)-N-ethyl-N-(2-((4-(2-hydroxypropan-2-yl)pyrimidin-2-yl)(methyl)amino)ethyl) benzamide] | 17.7
14 | CCN(CCN(C)c1nccc(C(C)(C)O)n1)C(=O)c1cccnc1CC(F)(F)F [Example H-23, N-ethyl-N-(2-((4-(2-hydroxypropan-2-yl)pyrimidin-2-yl)(methyl)amino)ethyl)-2-(2,2,2-trifluoroethyl)nicotinamide] | 179
15 | CCN(CCN(C)c1nccc(C(C)(C)O)n1)C(=O)c1ccccc1CC(F)F [Example H-24, 2-(2,2-difluoroethyl)-N-ethyl-N-(2-((4-(2-hydroxypropan-2-yl)pyrimidin-2-yl)(methyl)amino)ethyl) benzamide] | 20.6
16 | CCN(CCN(C)c1nccc(C(C)(C)O)n1)C(=O)c1ccccc1C1CC1 [Example H-25, 2-cyclopropyl-N-ethyl-N-(2-((4-(2-hydroxypropan-2-yl)pyrimidin-2-yl)(methyl)amino)ethyl) benzamide] | 9.1
17 | CCN(CCN(C)c1nccc(C(C)(C)O)n1)C(=O)c1ccccc1C1CC1(F)F (stereo not drawn) [Example H-26, 2-(2,2-difluorocyclopropyl)-N-ethyl-N-(2-((4-(2-hydroxypropan-2-yl)pyrimidin-2-yl)(methyl)amino)ethyl) benzamide] | 16.9
18 | CCN(CCN(C)c1nccc(C(C)(C)O)n1)C(=O)c1ccccc1OC(F)(F)F [Example H-27] | 10

Row | Structure (SMILES) | IC50 [nM]
19 | CCN(CCN(C)c1nccc(C(C)(C)O)n1)C(=O)c1ccc(OC)nc1C1CC1 [Example H-28, 2-cyclopropyl-N-ethyl-N-(2-((4-(2-hydroxypropan-2-yl)pyrimidin-2-yl)(methyl)amino)ethyl)-6-methoxynicotinamide] | 20
20 | CCN(CCN(C)c1nccc(C(C)(C)O)n1)C(=O)c1ccccc1-n1ncnn1 [Example H-29, N-ethyl-N-(2-((4-(2-hydroxypropan-2-yl)pyrimidin-2-yl)(methyl)amino)ethyl)-2-(2H-tetrazol-2-yl)benzamide] | 17
21 | CCN(CCN(C)c1nccc(C(C)(C)O)n1)C(=O)c1cccnc1-c1ccccc1 [Example H-30, N-ethyl-N-(2-((4-(2-hydroxypropan-2-yl)pyrimidin-2-yl)(methyl)amino)ethyl)-2-phenylnicotinamide] | 53
22 | CCN(CCN(C)c1nccc(C(C)(C)O)n1)C(=O)c1ncccc1-c1ccccc1 [Example H-31, N-ethyl-N-(2-((4-(2-hydroxypropan-2-yl)pyrimidin-2-yl)(methyl)amino)ethyl)-3-phenylpicolinamide] | 23
23 | CCN(CCN(C)c1nccc(C(C)(C)O)n1)C(=O)c1nccnc1-n1cccn1 [Example H-32, N-ethyl-N-(2-((4-(2-hydroxypropan-2-yl)pyrimidin-2-yl)(methyl)amino)ethyl)-3-(1H-pyrazol-1-yl)pyrazine-2-carboxamide] | 54
24 | CCN(CCN(C)c1nccc(C(C)(C)O)n1)C(=O)c1cccnc1-n1cccn1 [Example H-33, N-ethyl-N-[2-[[4-(1-hydroxy-1-methyl-ethyl)pyrimidin-2-yl]-methyl-amino]ethyl]-2-pyrazol-1-yl-pyridine-3-carboxamide] | 37
25 | CCN(CCN(C)c1nccc(C(C)(C)O)n1)C(=O)c1ncccc1-n1nccn1 [Example H-34, N-ethyl-N-[2-[[4-(1-hydroxy-1-methyl-ethyl)pyrimidin-2-yl]-methyl-amino]ethyl]-3-(triazol-2-yl)pyridine-2-carboxamide] | 43
26 | CCN(CCN(C)c1cccc(C(C)(C)O)n1)C(=O)c1ccccc1-n1nccn1 [Example I-1, N-ethyl-N-(2-((6-(2-hydroxypropan-2-yl)pyridin-2-yl)(methyl)amino)ethyl)-2-(2H-1,2,3-triazol-2-yl)benzamide] | 12.4
27 | CCN(CCN(C)c1cccc(C(C)(C)O)n1)C(=O)c1ccccc1OCC(F)F [Example I-4, 2-(2,2-difluoroethoxy)-N-ethyl-N-(2-((6-(2-hydroxypropan-2-yl)pyridin-2-yl)(methyl)amino)ethyl)benzamide] | 179
28 | CCN(CCN(C)c1cccc(C(C)(C)O)n1)C(=O)c1ncccc1-n1nccn1 [Example I-9, N-ethyl-N-(2-((6-(2-hydroxypropan-2-yl)pyridin-2-yl)(methyl)amino)ethyl)-3-(2H-1,2,3-triazol-2-yl)picolinamide] | 312
29 | CCN(CCN(C)c1cccc(C(C)(C)O)n1)C(=O)c1ccccc1-n1cccn1 [Example I-10, N-ethyl-N-(2-((6-(2-hydroxypropan-2-yl)pyridin-2-yl)(methyl)amino)ethyl)-2-(1H-pyrazol-1-yl)benzamide] | 93.3
30 | CCN(CCN(C)c1cccc(C(C)(C)O)n1)C(=O)c1nccnc1-n1cccn1 [Example I-11, N-ethyl-N-(2-((6-(2-hydroxypropan-2-yl)pyridin-2-yl)(methyl)amino)ethyl)-3-(1H-pyrazol-1-yl)pyrazine-2-carboxamide] | 328
31 | CCN(CCN(C)c1cccc(C(C)(C)O)n1)C(=O)c1ccccc1OC(F)(F)F [Example I-12, N-ethyl-N-(2-((6-(2-hydroxypropan-2-yl)pyridin-2-yl)(methyl)amino)ethyl)-2-(trifluoromethoxy)benzamide] | 73.7
32 | CCN(CCN(C)c1cccc(C(C)(C)O)n1)C(=O)c1ccccc1C1CC1 [Example I-13, 2-cyclopropyl-N-ethyl-N-(2-((6-(2-hydroxypropan-2-yl)pyridin-2-yl)(methyl)amino)ethyl)benz-amide] | 53.7
33 | CCN(CCN(C)c1cccc(C(C)(C)O)n1)C(=O)c1ccccc1OC(F)F [Example I-14, 2-(difluoromethoxy)-N-ethyl-N-(2-((6-(2-hydroxypropan-2-yl)pyridin-2-yl)(methyl)amino)ethyl)benz-amide] | 201
34 | CCN(CCN(C)c1cccc(C(C)(C)O)n1)C(=O)c1cccnc1OCC(F)(F)F [Example I-15, N-ethyl-N-(2-((6-(2-hydroxypropan-2-yl)pyridin-2-yl)(methyl)amino)ethyl)-2-(2,2,2-trifluoroethoxy)nicotinamide] | 306
35 | CCN(CCN(C)c1cccc(C(C)(C)O)n1)C(=O)c1cccnc1OCC(F)F [Example I-16, 2-(2,2-difluoroethoxy)-N-ethyl-N-(2-((6-(2-hydroxypropan-2-yl)pyridin-2-yl)(methyl)amino)ethyl)nicotin-amide] | 234
36 | CCN(CCN(C)c1cccc(C(C)(C)O)n1)C(=O)c1ccccc1OCC(F)(F)F [Example I-17, N-ethyl-N-(2-((6-(2-hydroxypropan-2-yl)pyridin-2-yl)(methyl)amino)ethyl)-2-(2,2,2-trifluoroethoxy)benzamide] | 326
